Holding throughout (format): biochemical
The target of experiment [1] is T1, isopenicillin N epimerase (Streptomyces clavuligerus, UniProt P18549).
T1 construct: Approximately 250 g of frozen whole cells of S. clavuligerus were thawed and homogenated; made in house; host or cells: Streptomyces clavuligerus NRRL 18491 (native producer; the endogenous enzyme was purified from cell-free extract, not made recombinantly)
T1 sequence (P18549 1-398): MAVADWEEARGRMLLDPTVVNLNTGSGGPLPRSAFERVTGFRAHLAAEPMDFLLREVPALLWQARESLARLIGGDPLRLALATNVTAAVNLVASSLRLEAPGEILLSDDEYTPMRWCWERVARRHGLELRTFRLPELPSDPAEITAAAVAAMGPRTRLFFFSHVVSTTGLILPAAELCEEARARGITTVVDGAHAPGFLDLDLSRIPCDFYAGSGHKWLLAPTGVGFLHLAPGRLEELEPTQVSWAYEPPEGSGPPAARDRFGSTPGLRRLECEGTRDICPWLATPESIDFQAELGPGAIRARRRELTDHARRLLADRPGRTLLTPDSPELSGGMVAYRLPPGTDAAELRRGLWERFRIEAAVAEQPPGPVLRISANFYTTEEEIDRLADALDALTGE
Kind of experiment: Conversion to apoenzyme with hydroxylamine / reduction with sodium borohydride, then activity. The procedure: PLP bound to the epimerase was measured by the known phenylhydrazine method and an average value of one mole of PLP per 47,000 g of enzyme was obtained. The haloenzyme was converted to the apoenzyme by incubation at 0°C for 60 min with 10 mM potassium phosphate, pH 7.0, containing 10 mM hydroxylamine followed by gel filtration. The hydroxylamine treated epimerase expressed no activity in the absence of exogenous PLP and the absorption maximum at 420 nm disappeared (FIG. 1, curve 2). The epimerase activity was restored by the addition of PLP to the apoenzyme. The apparent Michelis constant for PLP was determined to be 2.4 µM.
The absorption spectra shown in FIG. 1 of the drawings were obtained as follows. The epimerase (haloenzyme), curve 1, was treated with 10 mM hydroxylamine (apoenzyme), curve 2, or was reduced with 1 mM sodium borohydride, curve 3. After removal of hydroxylamine or sodium borohydride by gel filtration, absorption spectra were run in 10 mM potassium phosphate, pH 7.0, at the enzyme concentration of 0.57 mg/ml with an Aminco DW-2000 spectrophotometer.

Experiment [2] deals with T1, isopenicillin N epimerase. Kind of experiment: Epimerase activity assay (product formation from isopenicillin N / penicillin N, quantitated by HPLC after o-phthaldialdehyde derivatization). The procedure:
The epimerase activity was determined by the product formation using isopenicillin N and penicillin N as substrates. Formation of isopenicillin N and penicillin N was quantitated by HPLC. […] The reaction mixture was incubated at 37°C for 20 min. The reaction was terminated by placing the reaction vessel in boiling water for 10 min, immediately cooling the reaction mixture with ice, and then filtering the cold mixture through a 0.45 µm filter.
The derivatives were then analyzed by HPLC. The assay samples were prepared for HPLC as follows. The assay filtrate, obtained as described above, 20 µl was mixed with 5 µl of a derivatizing reagent consisting of 4 mg of o-phthaldialdehyde dissolved in 300 µl of methanol, 250 µl of 0.4 M sodium borate, pH 9.4, 390 µl of water and 60 µl of 1 M N-acetyl-L-cysteine, adjusted to pH 5-6 with sodium hydroxide. After a 2 min reaction time, 200 µl of 50 mM sodium acetate, pH 5.0, were added to the mixture and 50 µl aliquots were used for HPLC analysis.

For experiment [3], the target named is T1, isopenicillin N epimerase. Kind of experiment: Fluorescamine titration of hydroxylamine-treated epimerase with activity assay of aliquots. Particulars: fluorescamine/epimerase ratio of 35 mole/mole. The procedure:
Fluorescamine reacts with primary amino groups, such as the α-amino group of the N-terminal amino residue and the ε-amino groups of lysine in the enzyme to form fluorescent products with maximum excitation and emission wavelength of 390 nm and 475 nm, respectively.
The emission fluorescence of fluorescamine treated epimerase shown in FIG. 2 of the drawings was obtained as follows. The epimerase (0.5 mg/ml) was incubated in 10 mM potassium phosphate, pH 7.0, containing 10 mM hydroxylamine at 0°C for 60 min. After removal of hydroxylamine by gel filtration, the treated enzyme (0.16 mg/ml) in 10 mM potassium phosphate, pH 7.0, was titrated with the indicated amounts of fluorescamine (50 mM) dissolved in dry acetone at 25°C. The sample was excited at 390 nm and the emission fluorescence was followed at 475 nm. […] Simultaneously, aliquots of the enzyme solution were withdrawn and activity for isopenicillin N was assayed. The assay results (% activity) are shown on the curve labeled "●" in FIG. 2.

[4] abbreviates: compound as epimerase substrate at 1.4 mM, Isopenicillin N = 100, read-out: Relative Activity (%).
[5] abbreviates: compound as epimerase substrate at 1.4 mM, Isopenicillin N = 100.

We go through 28 compounds from patent EP0403172A2, “Purified enzyme and process therefor” (OKLAHOMA STATE UNIVERSITY, priority 1989, dated 1990).

Molecules are shown by their SMILES. Where two headings read alike, the source gives them in different places. Some results are limits rather than exact numbers.

For `[BH4-].[Na+]` [sodium borohydride], the “catalytic activity after reduction” value in experiment [1] (reduction of haloenzyme with sodium borohydride (1 mM), PLP did not restore activity) is reported as “destroyed catalytic activity”.
`CC(C)NNC(=O)c1ccncc1` [Iproniazid]: the inhibition at 1000 µM in experiment [2] (compound at 1.0 mM) is 25%.
With `CC(C)[C@@H](NC(=O)[C@H](CS)NC(=O)CCC[C@H](N)C(=O)O)C(=O)O` [ACV, δ-(L-α-aminoadipoyl)-L-cysteinyl-D-valine], the Activity in experiment [2] (setting [4]) turned out to be 0%.
On to `O=C1OC2(OC=C(c3ccccc3)C2=O)c2ccccc21` (stereo not shown) [fluorescamine], for which the epimerase activity remaining result in experiment [3] is recorded as “about 80%”.
`N[C@@H](CCCC(=O)O)C(=O)O` [L-Amino adipic acid]: the Activity in experiment [2] (setting [4]) came to 0%.
`Nc1ncnc2c1ncn2[C@@H]1O[C@H](COP(=O)(O)OP(=O)(O)OP(=O)(O)O)[C@@H](O)[C@H]1O` [ATP, Adenosine Triphosphate] yielded an Activity in experiment [2] (Table 4, compound at 1 mM) of 208 µmol/min/mL.
Take `Cc1ncc(COP(=O)(O)O)c(C=O)c1O` [PLP, pyridoxal-5′-phosphate]: the “apparent Michelis constant for PLP” value in experiment [2] (PLP added to the apoenzyme (hydroxylamine treated)) was determined as 2.4 µM.
In experiment [2] (compound at 1.0 mM), `O=CC(=O)c1ccccc1` [Phenylglyoxal] came in with an inhibition at 1000 µM of 33%.
`CC1(C)S[C@@H]2[C@H](NC(=O)CCC[C@H](N)C(=O)O)C(=O)N2[C@H]1C(=O)O` [Isopenicillin N]: the Activity in experiment [2] (setting [4]) is 100%.
With `OCCS` [β-mercaptoethanol], in experiment [2], the “effect on activity of epimerase” value is given as “partially stimulated”. For the same compound, the Activity came out at 275 µmol/min/mL in experiment [2] (sulfhydryl compound at 0.2 mM) and 281 µmol/min/mL in experiment [2] (sulfhydryl compound at 0.5 mM).
Consider `NO` [Hydroxylamine], for which the “epimerase activity after treatment” value in experiment [1] (10 mM hydroxylamine, 0°C, 60 min, gel filtration, absence of exogenous PLP) is on record as “no activity”. In addition, the “Inhibition (%)” value is 80% in experiment [2] (compound at 0.1 mM) and 95% in experiment [2] (compound at 1.0 mM).
In the case of `N[C@H](CCCC(=O)O)C(=O)O` [D-Amino adipic acid], the Activity in experiment [2] (setting [4]) amounted to 0%.
Regarding `O[C@H](CS)[C@H](O)CS` (racemic) [Dithiothreitol], in experiment [2], the “effect on activity of epimerase” value is recorded as “partially stimulated”. The figures for the Activity in experiment [2] (sulfhydryl compound at 0.2 mM) and in experiment [2] (sulfhydryl compound at 0.5 mM) were 290 µmol/min/mL and 300 µmol/min/mL, respectively.
Consider `CC1=C(C(=O)O)N2C(=O)[C@@H](NC(=O)CCC[C@@H](N)C(=O)O)[C@H]2SC1` [DAOC, Deacetoxycephalosporin C (3-cephem)], for which the Activity in experiment [2] (setting [4]) was less than 1%.
On the same count and under the same terms, next, `CC1(C)S[C@@H]2[C@H](NC(=O)CCC[C@@H](N)C(=O)O)C(=O)N2[C@H]1C(=O)O` [Penicillin N]: 204%.
Consider `CCN1C(=O)C=CC1=O` [N-Ethylmaleimide], for which at 100 µM the inhibition in experiment [2] (compound at 0.1 mM) was 26%. The compound also yielded an inhibition at 1000 µM in experiment [2] (compound at 1.0 mM) of 45%.
With `Cc1cc2nc3c(=O)[nH]c(=O)nc-3n(C[C@H](O)[C@H](O)[C@H](O)COP(=O)(O)OP(=O)(O)OC[C@H]3O[C@@H](n4cnc5c(N)ncnc54)[C@H](O)[C@@H]3O)c2cc1C` [FAD, Flavin-Adenine Dinucleotide], the Activity in experiment [2] (Table 4, compound at 0.5 mM) is 42 µmol/min/mL. The same compound registered an inhibition at 500 µM in experiment [2] (compound at 0.5 mM) of 80%.
`CC(=O)OCC1=C(C(=O)O)N2C(=O)[C@@H](NC(=O)CCC[C@@H](N)C(=O)O)[C@H]2SC1` [Ceph C, cephalosporin C]: in experiment [2] (setting [4]), the Activity amounted to 0%.
`CC(C)(COP(=O)(O)OP(=O)(O)OC[C@H]1O[C@@H](n2cnc3c(N)ncnc32)[C@H](O)[C@@H]1OP(=O)(O)O)[C@@H](O)C(=O)NCCC(=O)NCCS` [CoA, Coenzyme A]: the Activity in experiment [2] (Table 4, compound at 1 mM) was determined as 202 µmol/min/mL.
In the case of `O=S(=O)([O-])[O-].[Fe+2]` [FeSO4], in experiment [2] (Table 4, compound at 0.1 mM), the Activity was 150 µmol/min/mL.
In the case of `NC(=O)C1=CN([C@@H]2O[C@H](COP(=O)(O)OP(=O)(O)OC[C@H]3O[C@@H](n4cnc5c(N)ncnc54)[C@H](O)[C@@H]3O)[C@@H](O)[C@H]2O)C=CC1` [NADH, Reduced Nicotinamide Adenine Dinucleotide], the Activity in experiment [2] (Table 4, compound at 1 mM) is 184 µmol/min/mL.
For the compound `N[C@H](CCCC(=O)N[C@@H]1C(=O)N2C(C(=O)O)=C(CO)CS[C@H]12)C(=O)O` [DAC, Deacetylcephalosporin C], the “Relative Activity (%)” value in experiment [2] (setting [5]) is given as 0%.
Still for that read-out and setting: the value for `CC1=CSC2C(NC(=O)CCCC(N)C(=O)O)C(=O)N2C1C(=O)O` (stereo not shown) [IsoDAOC, Isodeacetoxycephalosporin C (2-cephem)] was 0%.
In the case of `O=S(=O)(F)Cc1ccccc1` [phenylmethylsulfonyl fluoride], in experiment [2], the “effect on activity of epimerase” value is on record as “do not affect”.
In turn, `N[C@@H]1CONC1=O` [D-Cycloserine] yielded an inhibition at 1000 µM in experiment [2] (compound at 1.0 mM) of 23%.
In the case of `CC(=O)N[C@@H](CS)C(=O)O` [N-acetyl-L-cysteine], the Activity in experiment [2] (sulfhydryl compound at 0.2 mM) came to 224 µmol/min/mL; in experiment [2] (sulfhydryl compound at 0.5 mM) it was 190 µmol/min/mL.
In turn, `NNC(=O)c1ccncc1` [Isoniazid] gave an inhibition at 1000 µM in experiment [2] (compound at 1.0 mM) of 23%.
On the same count and under the same terms, next, `NC(=O)CI` [Iodoacetamide]: 28%.
